Test results from patent publication US10471046B2, “Method for treating, preventing, or reducing the risk of skin infection” (Melinta Subsidiary Corp., priority 2014, dated 2019).
Converted amounts (≈) assume the structure as drawn.

System: S. aureus
Experiment: Minimum inhibitory concentrations (MICs) for S. aureus of exemplary compounds (Table 2)
Type: cell-based
Details: Staphylococcus aureus, minimum inhibitory concentrations for S. aureus; read-out: MICs
Summary of the method: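 Growth of S. aureus in media with or without compound, by broth microdilution in microtiter trays following NCCLS M7-A5 guidelines. Values are MICs in μg/mL.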

SMILES	MIC [µg/mL]
CC(=O)NC[C@H]1CN(c2ccc(-c3ccc(CNCc4cccc5ccccc45)cc3)c(F)c2)C(=O)O1 [Compound 4022, N-[3-(2-Fluoro-4′-{[(naphthalen-1-ylmethyl)-amino]-methyl}-biphenyl-4-yl)-2-oxo-oxazolidin-5-(S)-ylmethyl]-acetamide]	4 (≈ 8.04 µM)
CC(=O)NC[C@H]1CN(c2ccc(-c3ccc(CNCc4ccoc4)cc3)c(F)c2)C(=O)O1 [Compound 4023, N-[3-(2-Fluoro-4′-{[(furan-3-ylmethyl)-amino]-methyl}-biphenyl-4-yl)-2-oxo-oxazolidin-5-(S)-ylmethyl]-acetamide]	1 (≈ 2.29 µM)
CC(=O)NC[C@H]1CN(c2ccc(-c3ccc(CNCc4ccccn4)cc3)c(F)c2)C(=O)O1 [Compound 4024, N-[3-(2-Fluoro-4′-{[(pyridin-2-ylmethyl)-amino]-methyl}-biphenyl-4-yl)-2-oxo-oxazolidin-5-(S)-ylmethyl]-acetamide]	1 (≈ 2.23 µM)
CC(=O)NC[C@H]1CN(c2ccc(-c3ccc(CNCc4cccnc4)cc3)c(F)c2)C(=O)O1 [Compound 4025, N-[3-(2-Fluoro-4′-{[(pyridin-3-ylmethyl)-amino]-methyl}-biphenyl-4-yl)-2-oxo-oxazolidin-5-(S)-ylmethyl]-acetamide]	1 (≈ 2.23 µM)
CC(=O)NC[C@H]1CN(c2ccc(-c3ccc(CNCc4ccco4)cc3)c(F)c2)C(=O)O1 [Compound 4026, N-[3-(2-Fluoro-4′-{[(furan-2-ylmethyl)-amino]-methyl}-biphenyl-4-yl)-2-oxo-oxazolidin-5-(S)-ylmethyl]-acetamide]	1 (≈ 2.29 µM)
COc1cc(CNCc2ccncc2)ccc1-c1ccc(N2C[C@H](CNC(C)=O)OC2=O)cc1F [Compound 4027, N-[3-(2-Fluoro-2′-methoxy-4′-{[(pyridin-4-ylmethyl)-amino]-methyl}-biphenyl-4-yl)-2-oxo-oxazolidin-5-(S)-ylmethyl]-acetamide]	8 (≈ 16.7 µM)
COc1cc(CNCc2ccoc2)ccc1-c1ccc(N2C[C@H](CNC(C)=O)OC2=O)cc1F [Compound 4028, N-[3-(2-Fluoro-4′-{[(furan-3-ylmethyl)-amino]-methyl}-2′-methoxy-biphenyl-4-yl)-2-oxo-oxazolidin-5-(S)-ylmethyl]-acetamide]	8 (≈ 17.1 µM)
CC(=O)NC[C@H]1CN(c2ccc(-c3ccc([C@H](CO)NCc4ccncc4)cc3)c(F)c2)C(=O)O1 [Compound 4029, N-[3-(2-Fluoro-4′-{2-hydroxy-1-(R)-[(pyridin-4-ylmethyl)-amino]-ethyl}-biphenyl-4-yl)-2-oxo-oxazolidin-5-(S)-ylmethyl]-acetamide]	4 (≈ 8.36 µM)
CC(=O)NC[C@H]1CN(c2ccc(-c3ccc([C@H](CO)NCc4c(C)nc(O)nc4O)cc3)c(F)c2)C(=O)O1 [Compound 4030, N-[3-(4′-{1-(R)-[(2,4-Dihydroxy-6-methyl-pyrimidin-5-ylmethyl)-amino]-2-hydroxy-ethyl}-2-fluoro-biphenyl-4-yl)-2-oxo-oxazolidin-5-(S)-ylmethyl]-acetamide]	64 (≈ 122 µM)
CC(=O)NC[C@H]1CN(c2ccc(-c3ccc([C@H](CO)NCc4ccnc5ccccc45)cc3)c(F)c2)C(=O)O1 [Compound 4031, N-[3-(2-Fluoro-4′-{2-hydroxy-1-(R)-[(quinolin-4-ylmethyl)-amino]-ethyl}-biphenyl-4-yl)-2-oxo-oxazolidin-5-(S)-ylmethyl]-acetamide]	2 (≈ 3.78 µM)
CC(=O)NC[C@H]1CN(c2ccc(-c3ccc(CN(C)Cc4ccnc5ccccc45)cc3)c(F)c2)C(=O)O1 [Compound 4032, N-(3-{2-Fluoro-4′-[(methyl-quinolin-4-ylmethyl-amino)-methyl]-biphenyl-4-yl}-2-oxo-oxazolidin-5-(S)-ylmethyl)-acetamide]	1 (≈ 1.95 µM)
COc1cc(CN(C)Cc2ccncc2)ccc1-c1ccc(N2C[C@H](CNC(C)=O)OC2=O)cc1F [Compound 4033, N-(3-{2-Fluoro-2′-methoxy-4′-[(methyl-pyridm-4-ylmethyl-amino)-methyl]-biphenyl-4-yl}-2-oxo-oxazolidin-5-(S)-ylmethyl)-acetamide]	8 (≈ 16.2 µM)
COc1cc(CN(C)Cc2ccoc2)ccc1-c1ccc(N2C[C@H](CNC(C)=O)OC2=O)cc1F [Compound 4034, N-(3-{2-Fluoro-4′-[(furan-3-ylmethyl-methyl-amino)-methyl]-2′-methoxy-biphenyl-4-yl}-2-oxo-oxazolidin-5-(S)-ylmethyl)-acetamide]	32 (≈ 66.5 µM)
CCN(Cc1ccncc1)Cc1ccc(-c2ccc(N3C[C@H](CNC(C)=O)OC3=O)cc2F)cc1 [Compound 4035, N-(3-{4′-[(Ethyl-pyridin-4-ylmethyl-amino)-methyl]-2-fluoro-biphenyl-4-yl}-2-oxo-oxazolidin-5-(S)-ylmethyl)-acetamide]	2 (≈ 4.2 µM)
CC(=O)NC[C@H]1CN(c2ccc(-c3ccc(CN(C)Cc4c(C)nc(O)nc4O)cc3)c(F)c2)C(=O)O1 [Compound 4036, N-[3-(4′-{[(2,4-Dihydroxy-6-methyl-pyrimidin-5-ylmethyl)-methyl-amino]-methyl}-2-fluoro-biphenyl-4-yl)-2-oxo-oxazolidin-5-(S)-ylmethyl]-acetamide]	4 (≈ 7.85 µM)
COc1cc(CN(Cc2ccc(-c3ccc(N4C[C@H](CNC(C)=O)OC4=O)cc3F)cc2)Cc2ccc(O)c(OC)c2)ccc1O [Compound 4037, N-[3-(4′-{[Bis-(4-hydroxy-3-methoxy-benzyl)-amino]-methyl}-2-fluoro-biphenyl-4-yl)-2-oxo-oxazolidin-5-(S)-ylmethyl]-acetamide]	2 (≈ 3.18 µM)
CC(=O)NC[C@H]1CN(c2ccc(-c3ccc(CNCc4cnoc4)cc3)c(F)c2)C(=O)O1 [Compound 4038, N-[3-(2-Fluoro-4′-{[(isoxazol-4-ylmethyl)-amino]-methyl}-biphenyl-4-yl)-2-oxo-oxazolidin-5-(S)-ylmethyl]-acetamide]	0.25 (≈ 0.57 µM)
CC(=O)NC[C@H]1CN(c2ccc(-c3ccc(CN(C)Cc4ccncc4)cc3)c(F)c2)C(=O)O1 [Compound 4044, N-(3-{2-Fluoro-4′-[(methyl-pyridin-4-ylmethyl-amino)-methyl]-biphenyl-4-yl}-2-oxo-oxazolidin-5-(S)-ylmethyl)-acetamide]	1 (≈ 2.16 µM)
CC(=O)NC[C@H]1CN(c2ccc(-c3ccc(CN(C)Cc4ccccn4)cc3)c(F)c2)C(=O)O1 [Compound 4045, N-(3-{2-Fluoro-4′-[(methyl-pyridin-2-ylmethyl-amino)-methyl]-biphenyl-4-yl}-2-oxo-oxazolidin-5-(S)-ylmethyl)-acetamide]	2 (≈ 4.32 µM)
CC(=O)NC[C@H]1CN(c2ccc(-c3ccc(CN(C)Cc4cc(Cl)cc(Cl)c4)cc3)c(F)c2)C(=O)O1 [Compound 4046, N-[3-(4′-{[(3,5-Dichloro-benzyl)-methyl-amino]-methyl}-2-fluoro-biphenyl-4-yl)-2-oxo-oxazolidin-5-(S)-ylmethyl]-acetamide]	4 (≈ 7.54 µM)

The remaining lines, values ahead:

MIC [µg/mL]	SMILES
2 (≈ 4.32 µM)	CC(=O)NC[C@H]1CN(c2ccc(-c3ccc(CN(C)Cc4cccnc4)cc3)c(F)c2)C(=O)O1 [Compound 4047, N-(3-{2-Fluoro-4′-[(methyl-pyridin-3-ylmethyl-amino)-methyl]-biphenyl-4-yl}-2-oxo-oxazolidin-5-(S)-ylmethyl)-acetamide]
2 (≈ 4.58 µM)	CC(=O)NC[C@H]1CN(c2ccc(-c3ccc(CNCc4ccc[nH]4)cc3)c(F)c2)C(=O)O1 [Compound 4048, N-[3-(2-Fluoro-4′-{[(1H-pyrrol-2-ylmethyl)-amino]-methyl}-biphenyl-4-yl)-2-oxo-oxazolidin-5-(S)-ylmethyl]-acetamide]
1 (≈ 2 µM)	CC(=O)NC[C@H]1CN(c2ccc(-c3ccc(CNCc4cc5ccccc5n4C)cc3)c(F)c2)C(=O)O1 [Compound 4049, N-[3-(2-Fluoro-4′-{[(1-methyl-1H-indol-2-ylmethyl)-amino]-methyl}-biphenyl-4-yl)-2-oxo-oxazolidin-5-(S)-ylmethyl]-acetamide]
1 (≈ 1.94 µM)	CC(=O)NC[C@H]1CN(c2ccc(-c3ccc(CN(C)C(=O)c4ccc5cc[nH]c5c4)cc3)c(F)c2)C(=O)O1 [Compound 4050, 1H-Indole-6-carboxylic acid {4′-[5-(S)-(acetylamino-methyl)-2-oxo-oxazolidin-3-yl]-2′-fluoro-biphenyl-4-ylmethyl}-methyl-amide]
4 (≈ 8.36 µM)	CC(=O)NC[C@H]1CN(c2ccc(-c3ccc(CN(C)C(=O)c4cccn4C)cc3)c(F)c2)C(=O)O1 [Compound 4051, 1-Methyl-1H-pyrrole-2-carboxylic acid {4′-[5-(S)-(acetylamino-methyl)-2-oxo-oxazolidin-3-yl]-2′-fluoro-biphenyl-4-ylmethyl}-methyl-amide]
64 (≈ 142 µM)	CC(=O)NC[C@H]1CN(c2ccc(-c3ccc(CNCc4ccncc4)cn3)c(F)c2)C(=O)O1 [Compound 4052, N-{3-[3-Fluoro-4-(5-{[(pyridin-4-ylmethyl)-amino]-methyl}-pyridin-2-yl)-phenyl]-2-oxo-oxazolidin-5-(S)-ylmethyl}-acetamide]
4 (≈ 9.12 µM)	CC(=O)NC[C@H]1CN(c2ccc(-c3ccc(CNCc4ccoc4)cn3)c(F)c2)C(=O)O1 [Compound 4053, N-{3-[3-Fluoro-4-(5-{[(furan-3-ylmethyl)-amino]-methyl}-pyridin-2-yl)-phenyl]-2-oxo-oxazolidin-5-(S)-ylmethyl}-acetamide]
1 (≈ 2.09 µM)	COc1ccc(CNCc2ccc(-c3ccc(N4C[C@H](CNC(C)=O)OC4=O)cc3F)cc2)cn1 [Compound 4054, N-[3-(2-Fluoro-4′-{[(6-methoxy-pyridin-3-ylmethyl)-amino]-methyl}-biphenyl-4-yl)-2-oxo-oxazolidin-5-(S)-ylmethyl]-acetamide]
2 (≈ 4.06 µM)	COc1ccc(CN(C)Cc2ccc(-c3ccc(N4C[C@H](CNC(C)=O)OC4=O)cc3F)cc2)cn1 [Compound 4055, N-[3-(2-Fluoro-4′-{[(6-methoxy-pyridin-3-ylmethyl)-methyl-amino]-methyl}-biphenyl-4-yl)-2-oxo-oxazolidin-5-(S)-ylmethyl]-acetamide]
16 (≈ 32.3 µM)	CC(=O)NC[C@H]1CN(c2ccc(-c3ccc(CNCc4c(C)[nH]c(=O)[nH]c4=O)cc3)c(F)c2)C(=O)O1 [Compound 4057, N-[3-(2-Fluoro-4′-{[(6-methyl-2,4-dioxo-1,2,3,4-tetrahydro-pyrimidin-5-ylmethyl)-amino]-methyl}-biphenyl-4-yl)-2-oxo-oxazolidin-5-(S)-ylmethyl]-acetamide]
